Several values for one entry are separate records, joined by “and”; a condition that tells them apart may be missing. Equal values may be shown once. Read-outs that look alike come from different tables or passages of the source.
Experiments:
[1] = system: C. glabrata expressing humanized Bdf1 (Brd4 BDs); test: Growth inhibition in liquid media, humanized C. glabrata strains; settings: Fig 3D; 50 µM; humanized BDF1-flag; Exp 1-3
Protocol: (§1) Growth on Liquid Media with C. glabrata Lab Strains: Cells were grown at 30 °C in SC+M+C‐U medium (SC medium with 5 mM methionine, 0.25 mM cysteine, without uracil) to an OD600 of 0.5–0.8. […] Plates were incubated at 30 °C and OD600 was measured using a Multiskan FC Microplate Photometer (Thermo Fisher).

[2] = system: C. glabrata strains expressing WT and mutant Bdf1; test: Growth inhibition in liquid media, C. glabrata lab strains; settings: for pEC50 growth inhibition: Fig 2C; for % Growth (OD at 600 nm): Fig 2F
Protocol: as §1

[3] = target: C. auris Bdf1 BD1 (Candidozyma auris (Candida auris), UniProt A0AAW0VEM6); test: HTRF assay, inhibition of H4ac4 peptide binding
Sequence of C. auris Bdf1 BD1 (A0AAW0VEM6 entry or part of it): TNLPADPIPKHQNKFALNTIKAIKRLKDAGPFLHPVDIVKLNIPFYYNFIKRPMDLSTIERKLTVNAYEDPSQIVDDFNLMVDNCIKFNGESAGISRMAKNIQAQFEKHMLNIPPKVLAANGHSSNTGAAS

In the case of `Cc1ccc(-c2nnc(C)c(NCc3ccc(C)o3)n2)cc1` [Compound 24c, 6‐methyl‐N‐((5‐methylfuran‐2‐yl)methyl)‐3‐(p‐tolyl)‐1,2,4‐triazin‐5‐amine], the “%Growth” value [1] is reported as 82.6% and 80.3% and 69.6%, the pEC50 growth inhibition ([2]; strain BD1 Y-F, single experiments Exp1-3) is reported as 4.034 and 3.821 and the pEC50 growth inhibition ([2]; strain BD2 Y-F, single experiments Exp1-3) is reported as 4.481 and 4.395. The “pEC50 (WT BDF1)” value ([2]; Fig 2D, WT C. glabrata, single experiments Exp1-3) was 4.014 and 4.016, the “% Growth (OD at 600 nm)” value ([2]; WT BDF1, 6.25 microM) was 98% and 99% and 101% and the “% Growth (OD at 600 nm)” value ([2]; WT BDF1, 12.5 microM) was 95% and 97% and 99%. For the same compound, the “% Growth (OD at 600 nm)” value ([2]; WT BDF1, 25 microM) was 88% and 91% and 95%, the “% Growth (OD at 600 nm)” value ([2]; WT BDF1, 50 microM) was 65% and 71% and 69% and the “% Growth (OD at 600 nm)” value ([2]; WT BDF1, 100 microM) was 44% and 45% and 46%. For the same compound, the “% Growth (OD at 600 nm)” value ([2]; bdf1-bd1Y166F, 6.25 microM) was 99% and 101% and 98%, the “% Growth (OD at 600 nm)” value ([2]; bdf1-bd1Y166F, 12.5 microM) was 102% and 92% and 98% and the “% Growth (OD at 600 nm)” value ([2]; bdf1-bd1Y166F, 25 microM) was 92% and 82% and 97%. The “% Growth (OD at 600 nm)” value ([2]; bdf1-bd1Y166F, 50 microM) was 88% and 74% and 81%, the “% Growth (OD at 600 nm)” value ([2]; bdf1-bd1Y166F, 100 microM) was 50% and 44% and 56% and the “% Growth (OD at 600 nm)” value ([2]; bdf1-bd1Δ, 6.25 microM) was 98% and 99% and 93%. For the same compound, the “% Growth (OD at 600 nm)” value ([2]; bdf1-bd1Δ, 12.5 microM) was 93% and 98% and 97%, the “% Growth (OD at 600 nm)” value ([2]; bdf1-bd1Δ, 25 microM) was 88% and 86% and 96% and the “% Growth (OD at 600 nm)” value ([2]; bdf1-bd1Δ, 50 microM) was 78% and 74% and 87%. The “% Growth (OD at 600 nm)” value ([2]; bdf1-bd1Δ, 100 microM) was 50% and 43% and 61%, the “% Growth (OD at 600 nm)” value ([2]; bdf1-bd2Y343F, 6.25 microM) was 89% and 90% and 88% and the “% Growth (OD at 600 nm)” value ([2]; bdf1-bd2Y343F, 12.5 microM) was 80% and 76% and 84%. The “% Growth (OD at 600 nm)” value ([2]; bdf1-bd2Y343F, 25 microM) was 68% and 61% and 66%, the “% Growth (OD at 600 nm)” value ([2]; bdf1-bd2Y343F, 50 microM) was 40% and 46% and the “% Growth (OD at 600 nm)” value ([2]; bdf1-bd2Y343F, 100 microM) was 20% and 22%. For the same compound, the “% Growth (OD at 600 nm)” value ([2]; bdf1-bd2Δ, 6.25 microM) was 68% and 85%, the “% Growth (OD at 600 nm)” value ([2]; bdf1-bd2Δ, 12.5 microM) was 64% and 70% and 59% and the “% Growth (OD at 600 nm)” value ([2]; bdf1-bd2Δ, 25 microM) was 40% and 63% and 41%. The “% Growth (OD at 600 nm)” value ([2]; bdf1-bd2Δ, 50 microM) was 30% and 38% and 23%, the “%Growth” value ([2]; Fig 3D, 50 µM, WT BDF1-flag, Exp 1-3) was 54.5% and 57.2% and 54.2% and the EC50 ([2]; Nakaseomyces glabratus, read-out: EC50 (μM) growth inhibition, strain WT BDF1 (both BDs active)) was 90 µM. It also gave an EC50 ([2]; Nakaseomyces glabratus, read-out: EC50 (μM) growth inhibition, strain bdf1-Y166F (active BD: BD2)) of about 100 µM, an EC50 ([2]; Nakaseomyces glabratus, read-out: EC50 (μM) growth inhibition, strain bdf1-Y343F (active BD: BD1)) of 36.6 ± 33 µM and an EC50 ([2]; Nakaseomyces glabratus, read-out: EC50 (μM) growth inhibition, strain bdf1-bd1Δ (active BD: BD2)) of about 100 µM. It also gave an EC50 ([2]; Nakaseomyces glabratus, read-out: EC50 (μM) growth inhibition, strain bdf1-bd2Δ (active BD: BD1)) of 22.7 ± 7.9 µM, an EC50 ([2]; Nakaseomyces glabratus, read-out: pEC50 (WT BDF1), Fig 2D (converted), WT C. glabrata, single experiments Exp1-3) of 86.5 µM and an EC50 ([2]; Nakaseomyces glabratus, read-out: pEC50 growth inhibition, Fig 2C (converted), strain BD1 Y-F, single experiments Exp1-3) of 107 µM. For the same compound, the EC50 ([2]; Nakaseomyces glabratus, read-out: pEC50 growth inhibition, Fig 2C (converted), strain BD2 Y-F, single experiments Exp1-3) was 36.4 µM, the EC50 ([2]; read-out: EC50 (μM) growth inhibition, strain WT BDF1 (both BDs active)) was 93 µM and the remaining activity at 0.0021 µM ([3]; CauBD1, 24c 0.0021 microM, Exp1-3, read-out: Percent HTRF Signal) was 100%. It also gave a remaining activity at 0.0052 µM ([3]; CauBD1, 24c 0.0052 microM, Exp1-3, read-out: Percent HTRF Signal) of 94.1%, a remaining activity at 0.013 µM ([3]; CauBD1, 24c 0.013 microM, Exp1-3, read-out: Percent HTRF Signal) of 99.7% and a remaining activity at 0.033 µM ([3]; CauBD1, 24c 0.033 microM, Exp1-3, read-out: Percent HTRF Signal) of 98.7%. For the same compound, the remaining activity at 0.082 µM ([3]; CauBD1, 24c 0.082 microM, Exp1-3, read-out: Percent HTRF Signal) was 99.6%, the remaining activity at 0.2 µM ([3]; CauBD1, 24c 0.20 microM, Exp1-3, read-out: Percent HTRF Signal) was 104% and the remaining activity at […] ([3]; CauBD1, 24c 0.51 microM, Exp1-3, read-out: Percent HTRF Signal) was 96.3%. The remaining activity at 1.28 µM ([3]; CauBD1, 24c 1.28 microM, Exp1-3, read-out: Percent HTRF Signal) was 91.7%, the remaining activity at 3.2 µM ([3]; CauBD1, 24c 3.20 microM, Exp1-3, read-out: Percent HTRF Signal) was 84.9% and the remaining activity at 8 µM ([3]; CauBD1, 24c 8.00 microM, Exp1-3, read-out: Percent HTRF Signal) was 83.4%. For the same compound, the remaining activity at 20 µM ([3]; CauBD1, 24c 20.00 microM, Exp1-3, read-out: Percent HTRF Signal) was 64.7% and the “inhibition of Bdf1 BD1 from C. auris” value ([3]; HTRF, Fig S9C) was “weakly inhibited”.
